Source: patent EP0414533A1, “Use of iodopropargyl esters of alpha-amino acid derivatives as antimicrobial agents” (ROHM AND HAAS COMPANY, priority 1989, dated 1991)
≈ marks a conversion by molar mass, not a printed value. Structures can show the parent of a compound that is named as a salt. Where two headings read alike, the source gives them in different places.

Tests used:
COL = assay: In-vitro plant fungicide test; type: cell-based; design: inhibition of growth: concentration or dose not given beside the values; settings: Table IVb, read-out: % Control at (ppm) indicated COL; for inhibition of growth at 0.2 ppm: .2 ppm; for inhibition of growth at 0.4 ppm: .4 ppm; for inhibition of growth at 0.8 ppm: .8 ppm
Botrytis cinerea (BOC) = assay: In-vitro plant fungicide test; type: cell-based; settings: Botrytis cinerea; for inhibition of growth at 0.2 ppm: .2 ppm; for inhibition of growth at 0.4 ppm: .4 ppm; for inhibition of growth at 0.8 ppm: .8 ppm
[1] = tested on: Aureobasidium pullulans (APUL); assay: Minimum inhibitory concentration (MIC), broth two-fold serial dilution test; type: cell-based; settings: Aureobasidium pullulans
CER = assay: In-vitro plant fungicide test; type: cell-based; settings: Table IVb, read-out: % Control at (ppm) indicated CER; for inhibition of growth at 0.2 ppm: .2 ppm; for inhibition of growth at 0.4 ppm: .4 ppm; for inhibition of growth at 0.8 ppm: .8 ppm
Escherichia coli (ECOL) = assay: Minimum inhibitory concentration (MIC), broth two-fold serial dilution test; settings: Escherichia coli
MON = assay: In-vitro plant fungicide test; type: cell-based; settings: Table IVb, read-out: % Control at (ppm) indicated MON; for inhibition of growth at 0.2 ppm: .2 ppm; for inhibition of growth at 0.4 ppm: .4 ppm; for inhibition of growth at 0.8 ppm: .8 ppm
[2] = tested on: Cochliobolus sativus (HEL); assay: In-vitro plant fungicide test; type: cell-based; settings: Bipolaris sorokiniana; for inhibition of growth at 0.2 ppm: .2 ppm; for inhibition of growth at 0.4 ppm: .4 ppm; for inhibition of growth at 0.8 ppm: .8 ppm
[3] = tested on: Pseudomonas fluorescens (PSFL); assay: Minimum inhibitory concentration (MIC), broth two-fold serial dilution test; settings: Pseudomonas fluorescens
Pythium ultimum (PYU) = assay: In-vitro plant fungicide test; type: cell-based; settings: Globisporangium ultimum; for inhibition of growth at 0.2 ppm: .2 ppm; for inhibition of growth at 0.4 ppm: .4 ppm; for inhibition of growth at 0.8 ppm: .8 ppm
[4] = Table IVb, read-out: % Control at (ppm) indicated BOC
[5] = Table IVa, *=Phytotoxic, read-out: % Control at 25 ppm BOC
[6] = Table IVb, read-out: % Control at (ppm) indicated HEL
[7] = Table IVa, *=Phytotoxic, read-out: % Control at 25 ppm HEL
[8] = Table IVb, read-out: % Control at (ppm) indicated PYU
[9] = Table IVa, read-out: % Control at 25 ppm PYU

C[C@H](N)C(=O)N[C@@H](COCc1ccccc1)C(=O)OCC#CI [Compound 19, L-alanyl-O-benzyl-L-serine iodopropargyl ester trifluoroacetate]
inhibition of growth at 1.5 ppm (COL): 0%
inhibition of growth at 3 ppm (COL): 0%
inhibition of growth at 6 ppm (COL): 0%
inhibition of growth at 0.2 ppm (COL): 0%
inhibition of growth at 0.4 ppm (COL): 0%
inhibition of growth at 0.8 ppm (COL): 0%
inhibition of growth (COL): 0%
inhibition of growth at 1.5 ppm (Botrytis cinerea (BOC); [4]): 0%
inhibition of growth at 6 ppm (Botrytis cinerea (BOC); [4]): 0%
inhibition of growth at 25 ppm (Botrytis cinerea (BOC); [5]): 0%
inhibition of growth at 25 ppm (Botrytis cinerea (BOC); [4]): 90%
inhibition of growth at 0.2 ppm (Botrytis cinerea (BOC); [4]): 0%
inhibition of growth at 0.4 ppm (Botrytis cinerea (BOC); [4]): 0%
inhibition of growth at 0.8 ppm (Botrytis cinerea (BOC); [4]): 0%
MIC ([1]; read-out: MIC (F) APUL, M9G (minimal salts media with glucose), Table IIIc, iodopropargyl esters of peptides): < 0.8 µg/mL
inhibition of growth at 1.5 ppm (CER): 0%
inhibition of growth at 6 ppm (CER): 50%
inhibition of growth at 25 ppm (CER): 100%
inhibition of growth at 0.2 ppm (CER): 0%
inhibition of growth at 0.4 ppm (CER): 0%
inhibition of growth at 0.8 ppm (CER): 0%
MIC (Escherichia coli (ECOL); read-out: MIC (G-) ECOL, M9G (minimal salts media with glucose), Table IIIc, iodopropargyl esters of peptides): 100 µg/mL
inhibition of growth at 1.5 ppm (MON): 50%
inhibition of growth at 6 ppm (MON): 100%
inhibition of growth at 25 ppm (MON): 100%
inhibition of growth at 0.2 ppm (MON): 0%
inhibition of growth at 0.4 ppm (MON): 0%
inhibition of growth at 0.8 ppm (MON): 0%
inhibition of growth at 1.5 ppm [2, 6]: 0%
inhibition of growth at 6 ppm [2, 6]: 0%
inhibition of growth at 25 ppm [2, 7]: 100%
inhibition of growth at 25 ppm [2, 6]: 100%
inhibition of growth at 0.2 ppm [2, 6]: 0%
inhibition of growth at 0.4 ppm [2, 6]: 0%
inhibition of growth at 0.8 ppm [2, 6]: 0%
MIC ([3]; read-out: MIC (G-) PSFL, M9G (minimal salts media with glucose), Table IIIc, iodopropargyl esters of peptides): 50 µg/mL
inhibition of growth at 1.5 ppm (Pythium ultimum (PYU); [8]): 0%
inhibition of growth at 6 ppm (Pythium ultimum (PYU); [8]): 0%
inhibition of growth at 25 ppm (Pythium ultimum (PYU); [9]): 100%
inhibition of growth at 25 ppm (Pythium ultimum (PYU); [8]): 100%
inhibition of growth at 0.2 ppm (Pythium ultimum (PYU); [8]): 0%
inhibition of growth at 0.4 ppm (Pythium ultimum (PYU); [8]): 0%
inhibition of growth at 0.8 ppm (Pythium ultimum (PYU); [8]): 0%

CC(=O)NCC(=O)OCC#CI [Compound 28, N-acetylglycine iodopropargyl ester]
inhibition of growth at 1.5 ppm (COL): 0%
inhibition of growth at 3 ppm (COL): 0%
inhibition of growth at 6 ppm (COL): 0%
inhibition of growth at 12 ppm (COL; 12 ppm): 0%
inhibition of growth at 25 ppm (COL; 25 ppm): 50%
inhibition of growth at 0.2 ppm (COL): 0%
inhibition of growth at 0.4 ppm (COL): 0%
inhibition of growth at 0.8 ppm (COL): 0%
inhibition of growth at 1.5 ppm (Botrytis cinerea (BOC); [4]): 0%
inhibition of growth at 6 ppm (Botrytis cinerea (BOC); [4]): 0%
inhibition of growth at 25 ppm (Botrytis cinerea (BOC); [5]): 100%
inhibition of growth at 25 ppm (Botrytis cinerea (BOC); [4]): 100%
inhibition of growth at 0.2 ppm (Botrytis cinerea (BOC); [4]): 0%
inhibition of growth at 0.4 ppm (Botrytis cinerea (BOC); [4]): 0%
inhibition of growth at 0.8 ppm (Botrytis cinerea (BOC); [4]): 0%
MIC ([1]; IIIB, trypticase soy broth (complex media), Table IIIb, read-out: MIC (F) APUL): 4 µg/mL (≈ 14.2 µM)
inhibition of growth at 1.5 ppm (CER): 0%
inhibition of growth at 6 ppm (CER): 100%
inhibition of growth at 25 ppm (CER): 100%
inhibition of growth at 0.2 ppm (CER): 0%
inhibition of growth at 0.4 ppm (CER): 0%
inhibition of growth at 0.8 ppm (CER): 0%
MIC (Escherichia coli (ECOL); IIIB, read-out: MIC (G-) ECOL, trypticase soy broth (complex media), Table IIIb): 63 µg/mL (≈ 224 µM)
inhibition of growth at 1.5 ppm (MON): 0%
inhibition of growth at 6 ppm (MON): 100%
inhibition of growth at 25 ppm (MON): 100%
inhibition of growth at 0.2 ppm (MON): 0%
inhibition of growth at 0.4 ppm (MON): 0%
inhibition of growth at 0.8 ppm (MON): 0%
inhibition of growth at 1.5 ppm [2, 6]: 0%
inhibition of growth at 6 ppm [2, 6]: 100%
inhibition of growth at 25 ppm [2, 7]: 100%
inhibition of growth at 25 ppm [2, 6]: 100%
inhibition of growth at 0.2 ppm [2, 6]: 0%
inhibition of growth at 0.4 ppm [2, 6]: 0%
inhibition of growth at 0.8 ppm [2, 6]: 0%
MIC ([3]; IIIB, read-out: MIC (G-) PSFL, trypticase soy broth (complex media), Table IIIb): 63 µg/mL (≈ 224 µM)
inhibition of growth at 1.5 ppm (Pythium ultimum (PYU); [8]): 0%
inhibition of growth at 6 ppm (Pythium ultimum (PYU); [8]): 100%
inhibition of growth at 25 ppm (Pythium ultimum (PYU); [9]): 100%
inhibition of growth at 25 ppm (Pythium ultimum (PYU); [8]): 100%
inhibition of growth at 0.2 ppm (Pythium ultimum (PYU); [8]): 0%
inhibition of growth at 0.4 ppm (Pythium ultimum (PYU); [8]): 0%
inhibition of growth at 0.8 ppm (Pythium ultimum (PYU); [8]): 0%
